In patent US20240180898A1, “USE OF AMINOTHIAZOLE DERIVATIVE IN TREATMENT OF IMMUNE INFLAMMATION” (INNAMUNE PHARMACEUTICAL CO. LTD., priority 2021, published 2024):

What was measured:
[1] = preclinical safety assessment, intravenous injection; assay type: in vivo
Procedure: Direct intravenous injection of 30 mg/kg or more will cause elevated liver enzyme toxicity, and it has no toxic effect at 10 mg/kg.

CSDS depression model = experiment: Frustrative Depression (CSDS) model; assay type: in vivo, mouse; details: C57BL/6J mice
Procedure: Male C57BL/6J mice (6-7 weeks old, 18-20 g weight) and male CD-1 mice ([…] old) were used to create a model of Frustrative Depression (CSDS). C57BL/6J mice were attacked by different CD-1 […] for 10 minutes every day for 10 consecutive days. At night, the two types of mice were kept in the same cage separated by a perforated transparent glass to maintain the pressure of the attack.

[2] = system: Balb/c mouse psoriasis model; experiment: mouse psoriasis model (imiquimod cream); assay type: in vivo
Source text: Preparation and grouping of mouse […] model:
Model preparation: Male Balb/c mice aged 6-8 weeks were shaved on the back skin and coated with 5% imiquimod (IMQ) cream once a day for 7 consecutive days.
The experiment was divided into three groups, namely: • Psoriasis control group (without any treatment, psoriasis model group), TJ-M2010-5 systemic medication group (intraperitoneal injection), and TJ-M2010-5 local medication group (ointment group). The specific handling method is as follows: • TJ-M2010-5 systemic medication group: A Balb/c mouse psoriasis model was taken and TJ- M2010-5 was injected intraperitoneally at a dose of 50 mg/kg, once a day, for 2 consecutive weeks. • TJ-M2010-5 local medication group: A Balb/c mouse psoriasis model was taken, and 1% TJ-M2010-5 ointment was applied on the skin, once a day, for 2 consecutive weeks.

transplanted skin = experiment: allogeneic skin transplantation, Balb/c to B6; assay type: in vivo, mouse; details: used for 2 weeks then stopped
Source text: The paired mice for transplantation: The donor mouse is a balb/c mouse; The recipient mouse is B6 mouse. Transplant the donor's skin or heart separately to the recipient. After skin transplantation, INNA1605 (TJ-M2010-5) was continuously used for 2 weeks and then stopped. About 38% of the transplanted skin was permanently non-rejection. After administering TJ-M2010-5 for two weeks after allogeneic heart transplantation, 60% of the heart grafts were permanently not rejected. In these surviving recipient mice (non-rejection), the hearts of the same donor mice were transplanted for a second time without any treatment. The result was 100% non-rejection of the heart, confirming the development of immune tolerance against the same antigen (see FIGS. 34 and 35).

dry eye disease model = experiment: experimental dry eye (EDE) model; assay type: in vivo, mouse; details: day 9, vs EDE group
Source text: Dry eye disease was induced by placing mice in a experimental dry eye (EDE) condition and administering scopolamine to maximize ocular surface dryness. Animals were divided into three groups: non-EDE group, EDE group and EDE+TJ-5 group. Mice were euthanized on day 9 for cellular and molecular analysis.

[3] = system: H22 hepatocellular carcinoma cells; experiment: subcutaneous H22 hepatocellular carcinoma implantation; assay type: in vivo, mouse; details: balb/c mice
Source text: H22 hepatocellular carcinoma cells were subcutaneously implanted in balb/c mice and allowed to grow freely. The animals were divided into two groups: the INNA1605 (TJ-M2010-5) group and the non-drug control group.

IRI model of mouse liver = experiment: hepatic IRI model, western blotting of liver protein; details: in vivo
Source text: The IRI model of mouse liver was established. Animals were divided into three groups: Sham group, IRI group and IRI+TJ-5 group. Protein extracted from mouse liver was detected.

[4] = system: inflammatory colon cancer model; experiment: AOM/DSS induced inflammatory colon cancer model; assay type: in vivo, mouse
Procedure: Preparation and grouping of mouse inflammatory colon cancer model:
Model preparation: 6-8-week-old male C57 mice were intraperitoneally injected with AOM (10 mg/Kg)/DSS (2.5%) to induce an inflammatory colon cancer model.
The experiment was divided into two groups, namely: • Inflammatory colon cancer model group (without any treatment, i.e. AOM/DSS group), TJ-M2010-5 medication group (intraperitoneal injection). The specific handling method is as follows: • TJ-M2010-5 medication group: Two days before inducing inflammatory colon cancer in C57 mice by intraperitoneal injection of AOM (10 mg/kg)/DSS (2.5%), TJ-M2010-5 was injected intraperitoneally at a dose of 50 mg/kg once a day for 10 consecutive weeks.

[5] = system: middle cerebral artery occlusion (MCAO) model; experiment: reperfusion injury after acute cerebral infarction (MCAO model); assay type: in vivo, mouse; details: 15 mg/kg intravenously, 1 hour ischemia, 24 hours reperfusion
Procedure: Preparation and grouping of a mouse model of reperfusion injury after acute cerebral infarction: Model preparation: Adult male C57BL/6 mice (8-10 weeks old, weighing 22-25 g) were fasted for 8 hours before surgery and allowed to drink freely. Intraperitoneal injection of 1% pentobarbital sodium solution for anesthesia. […]

[6] = intraperitoneal 50 mg/kg once a day, 10 weeks

O=C(CCN1CCN(Cc2ccccc2)CC1)Nc1nc(-c2ccccc2)cs1 [INNA1605, 3-(4-benzylpiperazine-1-yl)-N-(4-phenylthiazole-2-yl) propionamide]
dose causing elevated liver enzyme toxicity ([1]; direct intravenous injection): ≥ 30 mg/kg | dose with no toxic effect ([1]; direct intravenous injection): 10 mg/kg | toxicity to the body ([1]; preclinical trial results): low toxicity to the body | induced depressive behavior and neuroinflammation in the brain (CSDS depression model): significantly improves induced depressive behavior and neuroinflammation in the brain | therapeutic effect, local medication ([2]; 1% ointment on the skin once a day, 2 weeks): excellent therapeutic effects, with a significant improvement after 7 days and a cure effect achieved after 14 days | infiltration and proliferation of mast cells ([2]; H&E and C-kit (CD117) staining): inhibits the infiltration and proliferation of mast cells | abnormally thickened stratum corneum ([2]; after treatment): can basically restore normal tissue structure after treatment | inflammatory cells in the skin ([2]; both treatments (systemic and local)): significantly reduce inflammatory cells in the skin | imbalance of spleen T cells and their subsets ([2]; flow cytometry): correct the imbalance of spleen T cells and their subsets | therapeutic effect, systemic medication ([2]; intraperitoneal 50 mg/kg once a day, 2 weeks): excellent therapeutic effects, with a significant improvement after 7 days and a cure effect achieved after 14 days | excessive keratinization and proliferation of skin keratinocytes ([2]; mouse, in vivo): inhibit excessive keratinization and proliferation of skin keratinocytes | expression of CD80 ([2]; mouse, in vivo): significantly reduces the expression of CD80 | expression of intradermal lymphokines (IL-1beta, IL-6, IL-17a, TNF-alpha, MyD88 mRNA, Cxcl2 mRNA) ([2]; mouse, in vivo): inhibits the expression of intradermal lymphokines | skin thickness ([2]; mouse, in vivo): significant thinning of skin thickness | splenomegaly ([2]; mouse, in vivo): can improve splenomegaly | MAPK signaling pathway ([2]; psoriasis model skin): inhibits the MAPK signaling pathway | synthesis and secretion of inflammatory factors ([2]; skin): inhibiting the synthesis and secretion of inflammatory factors | immune cell infiltration and activation (macrophages, neutrophils, mast cells) ([2]; skin tissue): a reduction in immune cell infiltration and activation | transplanted skin permanently non-rejection (transplanted skin): About 38% | corneal fluorescein staining score (dry eye disease model): significantly lower corneal fluorescein staining score | expression of IL-1β, TNF-α, MCP-1 and IL-6 in corneal tissues (dry eye disease model): reduced expression | tumor size [3]: significantly smaller than that in the control group | GSDMD cleavage in liver (IRI model of mouse liver): effectively inhibited GSDMD cleavage | NLRP3, cleavage of caspase-1 (upregulated) and pro-caspase-1 (downregulated) following IRI (IRI model of mouse liver): this trend was reversed | cleavage of caspase-11 (IRI model of mouse liver): effectively inhibited cleavage of caspase-11 | proliferation of epithelial cells in the colon mucosa ([4]; BrdU, Ki-67): significantly inhibited | neutrophil infiltration ([4]; MPO staining of colon mucosa): significantly reduced | inflammatory tissue damage of the colon mucosa [4, 6]: significantly reduced | therapeutic effect [4, 6]: excellent | no carcinogenesis observed ([4]; model group 100% cancerous transformation): 100% | colitis ([4]; mouse, in vivo): disappeared | mucosal thickening ([4]; mouse, in vivo): improved | reduction of infarct volume of acute cerebral infarction [5]: 80%
